We go through nine cell lines from the supplement of paper PMC10307832.

Assay in all cases: relative viability (nuclei count vs DMSO), 5 days (fraction); higher = more cells survive
Compound in the experiment “Alisertib + Pictilisib”: COc1cc(Nc2ncc3c(n2)-c2ccc(Cl)cc2C(c2c(F)cccc2OC)=NC3)ccc1C(=O)O [Alisertib] + CS(=O)(=O)N1CCN(Cc2cc3nc(-c4cccc5[nH]ncc45)nc(N4CCOCC4)c3s2)CC1 [Pictilisib] (partner 1 µM)
The method, boiled down:
(§1)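 Relative viability equals treated-well nuclei counts divided by vehicle-well nuclei counts. Counts came from 4× images of lung cancer cell lines grown in 1536-well plates for 5 days after pin-tool dosing on the day after seeding. Dosing used one drug alone or a fixed anchor-drug dose plus five library-drug doses (not always all listed) in √10 steps, and values are medians of duplicate plates.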

Compound in the experiment “Alisertib + Phenformin”: COc1cc(Nc2ncc3c(n2)-c2ccc(Cl)cc2C(c2c(F)cccc2OC)=NC3)ccc1C(=O)O [Alisertib] + N=C(N)NC(=N)NCCc1ccccc1 [Phenformin] (partner 250 µM)
The method, boiled down:
as §1

Compound in the experiment “Alisertib + Palbociclib”: COc1cc(Nc2ncc3c(n2)-c2ccc(Cl)cc2C(c2c(F)cccc2OC)=NC3)ccc1C(=O)O [Alisertib] + CC(=O)c1c(C)c2cnc(Nc3ccc(N4CCNCC4)cn3)nc2n(C2CCCC2)c1=O [Palbociclib] (partner 0.5 µM)
The method, boiled down: as §1

Compound in the experiment “Alisertib + Decitabine”: COc1cc(Nc2ncc3c(n2)-c2ccc(Cl)cc2C(c2c(F)cccc2OC)=NC3)ccc1C(=O)O [Alisertib] + Nc1ncn([C@H]2C[C@H](O)[C@@H](CO)O2)c(=O)n1 [Decitabine] (partner 2 µM)
The gist of the method:
as §1

NCI-H2087: the relative viability with Alisertib + Pictilisib (first compound 0.005 µM) was determined as 0.791; in the experiment with Alisertib + Pictilisib (first compound 0.01581 µM), 0.791; with Alisertib + Pictilisib (first compound 0.05 µM) it was 0.247; in the experiment with Alisertib + Pictilisib (first compound 0.1581 µM), 0.166; with Alisertib + Pictilisib (first compound 0.5 µM), 0.191; with Alisertib + Phenformin (first compound 0.005 µM) it was 0.423. The relative viability stood at 0.372 in the experiment with Alisertib + Phenformin (first compound 0.01581 µM); 0.13 in the experiment with Alisertib + Phenformin (first compound 0.05 µM); 0.12 with Alisertib + Phenformin (first compound 0.1581 µM); 0.105 with Alisertib + Phenformin (first compound 0.5 µM); 0.226 with Alisertib + Palbociclib (first compound 0.005 µM); 0.271 with Alisertib + Palbociclib (first compound 0.01581 µM). The relative viability in the experiment with Alisertib + Palbociclib (first compound 0.05 µM) is 0.154; with Alisertib + Palbociclib (first compound 0.1581 µM) it was 0.11; with Alisertib + Palbociclib (first compound 0.5 µM) it was 0.109; in the experiment with Alisertib + Decitabine (first compound 0.005 µM), 0.246; with Alisertib + Decitabine (first compound 0.01581 µM) it was 0.268; with Alisertib + Decitabine (first compound 0.05 µM), 0.149. Also, the relative viability is 0.126 in the experiment with Alisertib + Decitabine (first compound 0.1581 µM) and 0.0842 with Alisertib + Decitabine (first compound 0.5 µM).

With NCI-H2228, the relative viability in the experiment with Alisertib + Pictilisib (first compound 0.005 µM) amounted to 0.362; with Alisertib + Pictilisib (first compound 0.01581 µM), 0.419; with Alisertib + Pictilisib (first compound 0.05 µM), 0.228; with Alisertib + Pictilisib (first compound 0.1581 µM), 0.119; with Alisertib + Pictilisib (first compound 0.5 µM), 0.138; with Alisertib + Phenformin (first compound 0.005 µM), 0.277. The relative viability with Alisertib + Phenformin (first compound 0.01581 µM) was 0.287; with Alisertib + Phenformin (first compound 0.05 µM), 0.17; with Alisertib + Phenformin (first compound 0.1581 µM), 0.0908; in the experiment with Alisertib + Phenformin (first compound 0.5 µM) it was 0.0966; with Alisertib + Palbociclib (first compound 0.005 µM), 0.641; in the experiment with Alisertib + Palbociclib (first compound 0.01581 µM) it was 0.689. Further, the relative viability with Alisertib + Palbociclib (first compound 0.05 µM) stood at 0.378; with Alisertib + Palbociclib (first compound 0.1581 µM), 0.118; in the experiment with Alisertib + Palbociclib (first compound 0.5 µM), 0.125.

On to NCI-H838, for which the relative viability stood at 0.377 with Alisertib + Pictilisib (first compound 0.005 µM); 0.379 in the experiment with Alisertib + Pictilisib (first compound 0.01581 µM); 0.274 in the experiment with Alisertib + Pictilisib (first compound 0.05 µM); 0.189 with Alisertib + Pictilisib (first compound 0.1581 µM); 0.113 in the experiment with Alisertib + Pictilisib (first compound 0.5 µM); 0.444 with Alisertib + Phenformin (first compound 0.005 µM). In addition, the relative viability with Alisertib + Phenformin (first compound 0.01581 µM) is 0.446; in the experiment with Alisertib + Phenformin (first compound 0.05 µM), 0.276; in the experiment with Alisertib + Phenformin (first compound 0.1581 µM), 0.183; with Alisertib + Phenformin (first compound 0.5 µM), 0.144; in the experiment with Alisertib + Palbociclib (first compound 0.005 µM), 0.189; with Alisertib + Palbociclib (first compound 0.01581 µM) it was 0.291. The relative viability with Alisertib + Palbociclib (first compound 0.05 µM) was 0.177; with Alisertib + Palbociclib (first compound 0.1581 µM), 0.154; in the experiment with Alisertib + Palbociclib (first compound 0.5 µM), 0.132; in the experiment with Alisertib + Decitabine (first compound 0.005 µM), 0.402; with Alisertib + Decitabine (first compound 0.01581 µM) it was 0.334; with Alisertib + Decitabine (first compound 0.05 µM) it was 0.253. Moreover, the relative viability with Alisertib + Decitabine (first compound 0.1581 µM) turned out to be 0.213; with Alisertib + Decitabine (first compound 0.5 µM) it was 0.198.

NCI-H661: the relative viability with Alisertib + Pictilisib (first compound 0.005 µM) is 0.378; in the experiment with Alisertib + Pictilisib (first compound 0.01581 µM) it was 0.379; in the experiment with Alisertib + Pictilisib (first compound 0.05 µM), 0.229; in the experiment with Alisertib + Pictilisib (first compound 0.1581 µM) it was 0.245; in the experiment with Alisertib + Pictilisib (first compound 0.5 µM), 0.242; in the experiment with Alisertib + Phenformin (first compound 0.005 µM) it was 0.267. Besides, the relative viability was 0.288 with Alisertib + Phenformin (first compound 0.01581 µM); 0.271 in the experiment with Alisertib + Phenformin (first compound 0.05 µM); 0.246 with Alisertib + Phenformin (first compound 0.1581 µM); 0.29 with Alisertib + Phenformin (first compound 0.5 µM); 0.414 with Alisertib + Palbociclib (first compound 0.005 µM); 0.401 with Alisertib + Palbociclib (first compound 0.01581 µM). The relative viability amounted to 0.367 in the experiment with Alisertib + Palbociclib (first compound 0.05 µM); 0.296 with Alisertib + Palbociclib (first compound 0.1581 µM); 0.294 with Alisertib + Palbociclib (first compound 0.5 µM); 0.459 with Alisertib + Decitabine (first compound 0.005 µM); 0.501 with Alisertib + Decitabine (first compound 0.01581 µM); 0.37 in the experiment with Alisertib + Decitabine (first compound 0.05 µM). Also, the relative viability amounted to 0.312 with Alisertib + Decitabine (first compound 0.1581 µM) and 0.293 with Alisertib + Decitabine (first compound 0.5 µM).

In the case of NCI-H520, the relative viability came to 0.23 with Alisertib + Pictilisib (first compound 0.005 µM); 0.203 with Alisertib + Pictilisib (first compound 0.01581 µM); 0.209 with Alisertib + Pictilisib (first compound 0.05 µM); 0.179 in the experiment with Alisertib + Pictilisib (first compound 0.1581 µM); 0.187 with Alisertib + Pictilisib (first compound 0.5 µM); 0.552 with Alisertib + Phenformin (first compound 0.005 µM). Also, the relative viability was 0.395 with Alisertib + Phenformin (first compound 0.01581 µM); 0.275 with Alisertib + Phenformin (first compound 0.05 µM); 0.318 with Alisertib + Phenformin (first compound 0.1581 µM); 0.2 with Alisertib + Phenformin (first compound 0.5 µM); 0.196 in the experiment with Alisertib + Palbociclib (first compound 0.005 µM); 0.232 with Alisertib + Palbociclib (first compound 0.01581 µM). Also, the relative viability with Alisertib + Palbociclib (first compound 0.05 µM) was determined as 0.214; in the experiment with Alisertib + Palbociclib (first compound 0.1581 µM), 0.177; with Alisertib + Palbociclib (first compound 0.5 µM), 0.155; in the experiment with Alisertib + Decitabine (first compound 0.005 µM), 0.435; in the experiment with Alisertib + Decitabine (first compound 0.01581 µM), 0.451; with Alisertib + Decitabine (first compound 0.05 µM), 0.355. The relative viability with Alisertib + Decitabine (first compound 0.1581 µM) was found to be 0.236; in the experiment with Alisertib + Decitabine (first compound 0.5 µM), 0.242.

Turning to EBC-1, the relative viability in the experiment with Alisertib + Pictilisib (first compound 0.005 µM) came to 0.394; with Alisertib + Pictilisib (first compound 0.01581 µM), 0.282; in the experiment with Alisertib + Pictilisib (first compound 0.05 µM) it was 0.112; in the experiment with Alisertib + Pictilisib (first compound 0.1581 µM), 0.158; with Alisertib + Pictilisib (first compound 0.5 µM), 0.121.

For NCI-H727, the relative viability with Alisertib + Pictilisib (first compound 0.005 µM) stood at 0.273; in the experiment with Alisertib + Pictilisib (first compound 0.01581 µM), 0.333; with Alisertib + Pictilisib (first compound 0.05 µM) it was 0.236; in the experiment with Alisertib + Pictilisib (first compound 0.1581 µM), 0.236; in the experiment with Alisertib + Pictilisib (first compound 0.5 µM) it was 0.225; with Alisertib + Phenformin (first compound 0.005 µM), 0.514. For the same cell line, the relative viability in the experiment with Alisertib + Phenformin (first compound 0.01581 µM) stood at 0.504; in the experiment with Alisertib + Phenformin (first compound 0.05 µM), 0.262; with Alisertib + Phenformin (first compound 0.1581 µM) it was 0.276; in the experiment with Alisertib + Phenformin (first compound 0.5 µM), 0.352; in the experiment with Alisertib + Palbociclib (first compound 0.005 µM), 0.565; in the experiment with Alisertib + Palbociclib (first compound 0.01581 µM), 0.647. The relative viability with Alisertib + Palbociclib (first compound 0.05 µM) amounted to 0.534; with Alisertib + Palbociclib (first compound 0.1581 µM), 0.483; in the experiment with Alisertib + Palbociclib (first compound 0.5 µM), 0.474; with Alisertib + Decitabine (first compound 0.005 µM), 0.843; in the experiment with Alisertib + Decitabine (first compound 0.01581 µM), 0.892; in the experiment with Alisertib + Decitabine (first compound 0.05 µM), 0.81. In addition, the relative viability in the experiment with Alisertib + Decitabine (first compound 0.1581 µM) was determined as 0.617; in the experiment with Alisertib + Decitabine (first compound 0.5 µM) it was 0.537.

As to NCI-H1299, the relative viability in the experiment with Alisertib + Pictilisib (first compound 0.005 µM) amounted to 0.753; with Alisertib + Pictilisib (first compound 0.01581 µM), 0.698; with Alisertib + Pictilisib (first compound 0.05 µM), 0.187; in the experiment with Alisertib + Pictilisib (first compound 0.1581 µM), 0.179; in the experiment with Alisertib + Pictilisib (first compound 0.5 µM), 0.0871.

For the cell line LK-2, the relative viability in the experiment with Alisertib + Pictilisib (first compound 0.005 µM) is 0.573; with Alisertib + Pictilisib (first compound 0.01581 µM), 0.566; in the experiment with Alisertib + Pictilisib (first compound 0.05 µM), 0.314; in the experiment with Alisertib + Pictilisib (first compound 0.1581 µM), 0.329; with Alisertib + Pictilisib (first compound 0.5 µM), 0.26; with Alisertib + Phenformin (first compound 0.005 µM) it was 0.38. In addition, the relative viability in the experiment with Alisertib + Phenformin (first compound 0.01581 µM) was 0.385; with Alisertib + Phenformin (first compound 0.05 µM), 0.179; with Alisertib + Phenformin (first compound 0.1581 µM), 0.149; with Alisertib + Phenformin (first compound 0.5 µM), 0.163; with Alisertib + Palbociclib (first compound 0.005 µM) it was 0.684; in the experiment with Alisertib + Palbociclib (first compound 0.01581 µM), 0.67. For the same cell line, the relative viability with Alisertib + Palbociclib (first compound 0.05 µM) amounted to 0.403; with Alisertib + Palbociclib (first compound 0.1581 µM), 0.178; in the experiment with Alisertib + Palbociclib (first compound 0.5 µM), 0.148; with Alisertib + Decitabine (first compound 0.005 µM), 0.294; with Alisertib + Decitabine (first compound 0.01581 µM) it was 0.321; with Alisertib + Decitabine (first compound 0.05 µM), 0.165. The results for the relative viability with Alisertib + Decitabine (first compound 0.1581 µM) and with Alisertib + Decitabine (first compound 0.5 µM) were 0.143 and 0.127, respectively.
